Tests used:
[1] = tested on: DBA/Lac mice injected with type II chick collagen; assay: Type II collagen arthritis in mice, oral 10 mg/kg/day (Example 13); type: in vivo; settings: gavage 10 mg/kg/day, day 21 to day 49
Method: DBA/Lac mice were injected with 200 μg of type II chick collagen emulsified in Freund's complete adjuvant on day 0 and on day 21. Mu-Phe-HPhe-O-Ph was suspended in an ethanol solution which was then diluted to 10% (aq) and administered by gavage at a dose of 10 mg/kg/day from day 21 until sacrifice at day 49. The severity of joint inflammation was evaluated grossly at seven day intervals beginning on day 21. The effect of oral administration of Mu-Phe-HPhe-O-Ph on the severity of bone lesions in adjuvant-induced arthritis wa determined by evaluating osseous mineralization, periostat proliferation, bone erosion, joint space narrowing and osseous fragmentation. All lesions were scored on a scale of 0 (normal architecture) to 3 (severe or marked changes). Values calculated were means values ±1 std. error of the mean. […] The effect of oral administration of Mu-Phe-HPhe-O-Ph on the histological aspects of adjuvant-induced arthritis was determined by evaluating inflammation, focul ulcers, tibiotarsal joint cartilage destruction, bone destruction and periosteal proliferation. Inflammation was scored on a scale of 0 (no inflammation) to 3 (severe) based on the extent of edema and cell infiltration. Focul ulcer cartilage destruction was measured as the percent of articular cartilage surfaces with focal destruction which exposed underlying subchondral bone. […]

[2] = tested on: Soluble extracts of P. vinckei; assay: Proteolytic activity of P. vinckei soluble extracts, substrate Z-Phe-Arg-AFC; type: biochemical; settings: read-out: IC50, proteolytic activity of P. vinckei extract
Method: Treatment of Malaria with Mu-Phe-HPhe-O-Ph. Soluble extracts of P. falciparum and P. vinckei were prepared and proteolytic activity was assayed with fluorogenic peptide substrate Z-Phe-Arg-AFC. The activity of control samples was compared with activities in the presence of multiple concentrations of Mu-Phe-HPhe-O-Ph. The concentrations at which activity was inhibited by 50% (IC50) was calculated.
Treatment of Malaria with Mu-Leu-HPhe-O-Ph. Soluble extracts of P. falciparum and P. vinckei were prepared and proteolytic activity was assayed with fluorogenic peptide substrate Z-Phe-Arg-AFC. The activity of control samples was compared with activities in the presence of multiple concentrations of Mu-Leu-HPhe-O-Phe. The concentration at which activity was inhibited by 50%. (IC50) was calculated.
Treatment of Malaria with Mu-Phe-Arg(NO2)-O-Ph. Soluble extracts of P. falciparum and P. vinckei were prepared and proteolytic activity was assayed with fluorogenic peptide substrate Z-Phe-Arg-AFC. The activity of control samples was compared with activities in the presence of multiple concentrations of Mu-Phe-Arg(NO2)-O-Ph. The concentration at which activity was inhibited by 50% (IC50) was calculated.
Treatment of Malaria with Mu-Tyr(OCH3)2 -HPhe-O-Ph. Soluble extracts of P. falciparum and P. vinckei were prepared and proteolytic activity was assayed with fluorogenic peptide substrate Z-Phe-Arg-AFC. The activity of control samples as compared with activities in the presence of multiple concentrations of Mu-Tyr(OCH3)2 -HPhe-O-Ph. The concentration at which activity was inhibited by 50% (IC50) was calculated.

[3] = target: Soluble extracts of P. falciparum (cysteine proteinase); assay: Proteolytic activity of P. falciparum soluble extracts, substrate Z-Phe-Arg-AFC; type: biochemical; settings: read-out: IC50, proteolytic activity of P. falciparum extract
Method: Soluble extracts of P. falciparum and P. vinckei were prepared and proteolytic activity was assayed with fluorogenic peptide substrate Z-Phe-Arg-AFC. […] The concentrations at which activity was inhibited by 50% (IC50) was calculated.
Soluble extracts of P. falciparum and P. vinckei were prepared and proteolytic activity was assayed with fluorogenic peptide substrate Z-Phe-Arg-AFC. […] The concentration at which activity was inhibited by 50%. (IC50) was calculated.
Soluble extracts of P. falciparum and P. vinckei were prepared and proteolytic activity was assayed with fluorogenic peptide substrate Z-Phe-Arg-AFC. […] The concentration at which activity was inhibited by 50% (IC50) was calculated.

[4] = tested on: 45Ca2+-labelled bones (calvaria) of neonatal mice; assay: Parathyroid hormone-stimulated 45Ca2+ release from cultured mouse calvaria; type: cell-based; settings: 24 hour period, PTH-stimulated
Method: (§1) Treatment of Osteo Arthritis with Mu-Phe-HPhe-O-Ph. ^45 Ca^2+ -labelled bones (calvaria) of neonatal mice were maintained in culture. The effect of the test compound on the rate of parathyroid hormone-stimulated ^45 Ca^2+ release was measured over a 24 hour period. An inhibitor of bone resorption (at maximal concentrations) would be expected to inhibit this rate by approximately 70%. The nature of the residual, uninhibitable ^45 Ca^2+ -release is not known but could represent chemical exchange of ^45 Ca^2+ with the medium. Mu-Phe-HPhe-O-Ph was dissolved in dimethylsulphoxide which was present in the incubation at concentrations <0.1%.
as §1, with “Mu-Leu-HPhe-O-Ph.” for “Mu-Phe-HPhe-O-Ph.”, “Mu-Leu-HPhe-O-Ph” for “Mu-Phe-HPhe-O-Ph”
as §1, with “Mu-Tyr(OMe)-HPhe-O-Ph.” for “Mu-Phe-HPhe-O-Ph.”, “Mu-Tyr(OMe)-HPhe-O-Ph” for “Mu-Phe-HPhe-O-Ph”
as §1, with “Z-Phe-Ala-O-Ph.” for “Mu-Phe-HPhe-O-Ph.”, “Z-Phe-Ala-O-Ph” for “Mu-Phe-HPhe-O-Ph”
as §1, with “Mu-Tyr(OMe)-HPhe-O-Ph.” for “Mu-Phe-HPhe-O-Ph.”, “labelled” for “-labelled”, “Mu-Tyr(OMe)-HPhe-O-Ph” for “Mu-Phe-HPhe-O-Ph”

Structure (SMILES): O=C(O)Cc1ccccc1OCC(=O)[C@H](CCc1ccccc1)NC(=O)[C@H](Cc1ccccc1)NC(=O)N1CCOCC1 [Mu-Phe-HPhe-O-Ph, (4-morpholinylcarbonyl)-L-phenylalanyl-L-homophenylalanyl-(2-carboxymethyl)phenoxymethyl ketone]
- histological aspects values vs control animals ([1]; inflammation, focul ulcers, tibiotarsal joint cartilage destruction, bone destruction, periosteal proliferation): significantly (p<0.05) lower than the values of control animals
- bone lesion severity values vs control animals ([1]; osseous mineralization, periostat proliferation, bone erosion, joint space narrowing, osseous fragmentation, scale 0-3): significantly (p<0.05) lower than the values of control animals
- IC50 [2]: 5.1 nM
- IC50 [3]: 3 nM
- inhibition of the rate of 45Ca2+-release ([4]; 1 μm inhibitor): 50%
- additional inhibition of the rate of 45Ca2+-release ([4]; 100 μm inhibitor): 20%

Source: US5374623A, “Cysteine protease inhibitors effective for in vivo use” (Prototek, Inc., priority 1992, dated 1994)
